Data as given in patent US20030114467A1, “Novel pyrazolo- and pyrrolo-pyrimidines and uses thereof” (priority 2001, published 2003).

Experiment: Hydroxyapatite assay (hydroxyapatite adsorption chromatography, bone-targeting potential)
Assay type: physicochemical
Details: corrected retention K=(retention time-void time)/void; TSK-Gel HA 1000 HPLC column; linear gradient 10 mM to 500 mM sodium phosphate, 0.15 N NaCl, pH 6.8
Description: Hydroxyapatite is the principal mineral component of bone. Hydroxyapatite adsorption chromatography is used as an assay to evaluate the bone-targeting potential of both individual bone-targeting moieties (“monomers”) and of pharmaceuticals incorporating bone-targeting groups.
Method: The rentention time of a test compound is measured using a linear gradient from 10 mM sodium phosphate, 0.15 N NaCl, pH=6.8 to 500 mM sodium phosphate, 0.15 N NaCl, […] on a TSK-Gel HA 1000 high pressure liquid chromatography column (7.5 mm×75 mm). The rentention time of the compound is expressed in terms of K=(retention time-void time)/void. This K value is corrected using two reference compounds to correct from inter-column and inter-system variation to obtain a K′ value.
Reference Compounds: K′ values were determined for known bone targeted compounds, the bisphosphonate, alendronate and tetracycline.

K′ value: 3.7
Compound: NCCCC(O)(P(=O)(O)O)P(=O)(O)O [Alendronate, alendronate]
